Assay results reported in patent publication US9497963B2, “Methods and compositions for control of gypsy moth, Lymantria dispar” (Simon Fraser University, priority 2008, dated 2016).
Like-named read-outs stand apart in the source and are kept apart here.

Experiments:
Parameters in all cases: species or system Lymantria dispar
male gypsy moth antenna = experiment: Coupled gas chromatographic-electroantennographic detection (GC-EAD); details: EAD peak size and shape (sharp/broad)
Source text: In GC-EAD assays, the analyte is processed by gas chromatography (GC). The column effluent is split, such that molecules of each chromatographic peak arrive simultaneously at the flame ionization detector of the GC and at an anectomized but otherwise intact insect antenna as the biological detector. This procedure detects specific compounds in the analyte that elicit an electrical potential from the antenna.
For GC-EAD recordings, an antenna was carefully dislodged from a male moth's head, and the antennal base placed into the opening of a glass capillary electrode (0.58 mm ID×65 mm length) (A-M Systems, Inc., Carlsborg, Wash., USA) filled with saline solution. The tip of the antenna was removed by spring microscissors (Fine Science Tools Inc., North Vancouver, British Columbia, Canada) and then placed into the opening of the recording electrode mounted on a portable micromanipulator and positioned in front of a constant stream of warm air (Praxair Canada Inc., Mississauga, Ontario, Canada) which delivered the GC column eluent. […] Identical retention times of compounds detected by the flame ionization detector of the GC and by the insect antenna allowed assignment of antennal responses to specific compounds in the eluent.

[1] = system: male gypsy moth antenna response to pheromone (+)-1; experiment: EAG short-term (STI) and long-term (LTI) inhibition of pheromone signaling (Example 5); details: for inhibition at 0.001 mg / inhibition at 0.01 mg / inhibition at 0.1 mg / inhibition at 100 µg, 0.1 mg: Lymantria dispar; for inhibition at 0.001 mg / inhibition at 0.01 mg / inhibition at 0.1 mg / Activity (%): short-term inhibition (STI): negative = enhancement; for inhibition at 0.001 mg / inhibition at 0.01 mg / inhibition at 0.1 mg: read-out: Activity (%): short-term inhibition (STI); for inhibition at 100 µg, 0.1 mg: read-out: Activity (%): long-term inhibition (LTI)
Protocol: The puffs are numbered i-vi and were: i=air, ii=pure pheromone (+)-disparlure, (+)-1, (100 ng), iii-v=disparlure mixed with the test compound, the latter at three different doses, vi=pure (+)-1. Depolarizations from the resting potential are labeled d; hyperpolarizations seen during the recovery phase after a puff are labeled r. Subscripts refer to the puff number. FIG. 5A. Typical trace for compound 3c{2,3}. FIG. 5B. Typical trace for compound 3a{4,4}.
For other compounds, EAG traces were recorded as follows: a fully dislodged antenna from a male gypsy moth was mounted on the end of a reference electrode (a glass capillary with a silver wire, filled with buffered saline: 5 mM NaH2PO4, 10 mM Na2SO4, 4.5 mM KHCO3, 18 mM MgCl2, 4 mM CaCl2, 6 mM KCl, the pH is adjusted to 6.8 using 5 mM Na2HPO4). The tip of the antenna was severed with microscissors and placed in the recording electrode, which was mounted on a micromanipulator. A constant stream of air, that had been purified (charcoal filter), was blown over the antenna at a rate of 300 mL/min. Test samples were delivered through a stimulus delivery tube with a side opening 2 cm from the distal opening. The proximal end of the delivery tube was connected to a controlled stimulus delivery apparatus (Stimulus controller CS-05 Syntech Research and Equipment, NL 1200BM, Hilversum, The Netherlands). The distal end of the delivery tube pointed at the antenna (1 cm from the antenna). The side opening was connected to a cartridge fashioned from a Pasteur pipette which contained a small filter paper (Whatman No. 1) with the stimulus. These pipette cartridges could be prepared a few days in advance and stored at −80° C. wrapped in Al foil and in sealable plastic bags. Sample cartridges were mounted once they had reached room temperature. The stimulus delivery apparatus delivered a second stream of air (a puff) through the Pasteur pipette at a velocity of 600 mL/min, at a specified point in time, for 0.3 s. Receptor potentials of the antennae in response to test stimuli were recorded with a Syntech IDAC probe, amplifier and interfaced board, and were analyzed with EAG Syntech Software Version 2.4 (1996). See FIG. 4 for a representative EAG trace. The EAG traces were evaluated as follows (see FIG. 5).
The net depolarizations, d(net) (in mV), of puffs ii-vi,d(sample), (corrected for the depolarization with clean air, d(air)) d(net)=d(sample)−d(air) (Eq. 1)
The percentage short-term inhibition for each compound (STI(compound)) of puffs iii-v, relative to the first pure pheromone puff (ii) STI(compound)=100×(d(net)(ii)−d(net)(compound))/d(net)(ii) (Eq. 2)
c) the percentage long-term inhibition for each compound (LTI(compound)) of the pure pheromone puff that followed the last mixed puff (vi) relative to the first pure pheromone puff (ii) LTI(compound)=100×(d(net)(ii)−d(net)(vi))/d(net)(ii) (Eq. 3)
The compounds we tested gave weak or no olfactory responses by themselves in electroantennogram (EAG) experiments. The EAG trace reflects the change in the potential across the antenna when an air puff with an odorant is passed over the antenna. To understand the agonistic or antagonistic effect of the compounds on pheromone responses by male moth antennae, four types of EAG experiment were conducted. First, the response of the antenna elicited by a stimulus of pure (+)-1 was compared to the responses elicited by blends of (+)-1 with the test compound (FIG. 5). […] This effect was termed short-term inhibition (STI). […] Second, the time decay and dose responses for LTI activities were studied. Third, the strongest inhibitors were tested for their ability to cause LTI by themselves.
This experiment explored the agonistic or antagonistic activity of the synthetic aromatic compounds (Scheme 1 and eugenol and alkyl eugenols) with the gypsy moth pheromone (+)-1. […]

[2] = system: response of L. dispar antennae to (+)-disparlure; experiment: Competitive electroantennogram (EAG) screen, inhibition of response to (+)-disparlure (Example 4); details: Lymantria dispar, means ± S.E.; for inhibition at 0.001 mg: dose 1 μg on cartridge; for inhibition at 0.01 mg: dose 10 μg on cartridge; for inhibition at 0.1 mg: dose 100 μg on cartridge
Protocol: In this assay, libraries and individual compounds are tested for their ability to inhibit the antennal response to the sex attractant pheromone of the gypsy moth, (7R,8S) 2-methyl-7,8-epoxyoctadecane, also known as (+)-disparlure. The controls consisted of a puff of clean air (negative) or of air passed over a cartridge impregnated with (+)-disparlure (100 ng) (positive). The treatments consisted of 100 ng of (+)-disparlure in combination with a compound or library at 1, 10 or 100 μg, on a cartridge over which the air puff was passed. The small arrows above the trace denote the times where the air was puffed over the antenna.
For some compounds, such as the para Compounds 2c{n}, 2c{n,n} and libraries 3c{n,1-5}, EAG competitive assays were performed to investigate whether the diethers inhibit the response of L. dispar antennae to the main component of the sex attractant pheromone cis-(7R,8S)-epoxy-2-methyloctadecane [(+)-disparlure] (FIG. 4). For EAGs a male moth antenna was mounted and placed in front of a stimulus-delivery glass tubing (160×5 mm ID) with a side orifice (2 mm diam) near (2 cm) the distal opening. The tubing was connected to one port of an apparatus (Stimulus Controller CS-05, Syntech Research and Equipment, NL-1200BM Hilversum, The Netherlands) that generated a constant stream of clean air (300 ml/min). The second port of the apparatus was connected to a Pasteur pipette inserted through the side orifice of the stimulus-delivery tubing. The test stimulus was applied to a disc of Whatman #1 filter paper inside the Pasteur pipette and was discharged through a 0.3-sec pulse of air (600 ml/min) Receptor potentials of the antennae in response to test stimuli were recorded with a Syntech IDAC probe, amplifier and interfaced board, and were analyzed with EAG Syntech Software Version 2.4 (1996) Inhibition (%) was calculated as: % inhibition=(Dd−Ds)/Dd×100 (eq. 1)
Where Dd is the depolarization observed with pure disparlure (corrected for clean air background) and Ds is the depolarization with disparlure+sample. See FIG. 4 for a representative EAG inhibition assay trace.

[3] = mixed plume (+)-1 100 ng + compound 1 μg, mean ± S.E.
[4] = mixed plume (+)-1 100 ng + compound 10 μg, mean ± S.E.
[5] = mixed plume (+)-1 100 ng + compound 100 μg (puff v), mean ± S.E.
[6] = pure (+)-1 100 ng plume following mixed plume with 100 μg compound, mean ± S.E.

SMILES | GC-EAD activity (male gypsy moth antenna) | inhibition at 0.001 mg [1, 3] | inhibition at 0.01 mg [1, 4] | inhibition at 0.1 mg [1, 5] | inhibition at 100 µg, 0.1 mg [1, 6] | inhibition at 0.001 mg [2] | inhibition at 0.01 mg [2] | inhibition at 0.1 mg [2] | long-term inhibition (LTI) activity (in words) [1] | Activity (%): short-term inhibition (STI) [1, 3] | Activity (%): short-term inhibition (STI) [1, 4] | Activity (%): short-term inhibition (STI) [1, 5] | Activity (%): long-term inhibition (LTI) [1, 6] | inhibition at 100 µg, 0.1 mg [1]
COc1ccc(O)cc1 [2c{1}, 4-Methoxy phenol] | None | 8 ± 12% | 21 ± 20% | -16 ± 25% | 10 ± 7% | 10 ± 5% | 55 ± 11% | 43 ± 12% | – | – | – | – | – | –
CCOc1ccc(O)cc1 [2c{2}, 4-Ethoxy phenol] | None | -3 ± 4% | 55 ± 5% | 47 ± 5% | 7 ± 4% | 49 ± 10% | 64 ± 9% | 45 ± 8% | – | – | – | – | – | –
C=CCOc1cccc(OCCC)c1 [3b{3,6}, 1-allyloxy-3-propoxybenzene] | None | -85 ± 30% | -85 ± 80% | -96 ± 98% | 48 ± 7% | – | – | – | most active long-term inhibitor | – | – | – | – | –
CCCCOc1cccc(OCCCC)c1 [3b{4,4}, 1,3-Dibutoxy benzene] | None | 4 ± 45% | -72 ± 91% | -42 ± 93% | 8 ± 9% | – | – | – | – | – | – | – | – | –
C=CCOc1cccc(OCCCC)c1 [3b{4,6}, 1-allyloxy-3-n-butoxybenzene] | None | -66 ± 43% | -101 ± 76% | 8 ± 46% | 27 ± 12% | – | – | – | – | – | – | – | – | –
CC(C)CCOc1cccc(OCCC(C)C)c1 [3b{5,5}, 1,3-Di-(3-methyl-butyloxy) benzene] | None | 41 ± 13% | -38 ± 41% | -51 ± 51% | 9 ± 9% | – | – | – | – | – | – | – | – | –
C=CCOc1cccc(OCCC(C)C)c1 [3b{5,6}, 1-allyloxy-3-isopentoxybenzene] | None | -69 ± 34% | -85 ± 65% | -99 ± 88% | 15 ± 8% | – | – | – | – | – | – | – | – | –
C=CCOc1cccc(OCC=C)c1 [3b{6,6}, 1,3-Diallyloxy benzene] | None | 11 ± 18% | 10 ± 22% | -34 ± 41% | 33 ± 12% | – | – | – | – | – | – | – | – | –
C=CCOc1ccc(OCCC)cc1 [3c{3,6}, 1-allyloxy-4-propoxybenzene] | + broad | -57 ± 46% | -114 ± 51% | -168 ± 76% | 39 ± 15% | – | – | – | – | – | – | – | – | –
C=CCOc1ccc(OCC=C)cc1 [3c{6,6}, 1,4-Diallyloxy benzene] | Trace | -6 ± 10% | 45 ± 6% | 41 ± 8% | 4 ± 6% | – | – | – | – | – | – | – | – | –
C=CCc1ccc(OCCCC)c(OC)c1 [Bu eugenol] | None | – | – | – | – | – | – | – | – | 39 ± 17 (6) % | −68 ± 29 (6) % | −116 ± 24 (6) % | 7 ± 4 (6) % | –
C=CCc1ccc(OCC)c(OC)c1 [Et eugenol] | None | 3 ± 27% | 19 ± 18% | -121 ± 15% | 20 ± 3% | – | – | – | – | – | – | – | – | –
C=CCc1ccc(O)c(OC)c1 [eugenol, 2-methoxy-4-(2-propenyl) phenol, reference compound] | None | – | – | – | – | – | – | – | – | – | – | – | – | 14 ± 10%
C=CCc1ccc(OCCC(C)C)c(OC)c1 [iPent eugenol] | None | – | – | – | – | – | – | – | – | 11 ± 33 (6) % | −98 ± 26 (6) % | −106 ± 24 (6) % | 5 ± 8 (6) % | –
